The record followed here is US9328106B2, “Cyclic ether pyrazol-4-yl-heterocyclyl-carboxamide compounds and methods of use” (Genentech, Inc., priority 2012, dated 2016).

pKi: −log10 of the molar value.

For the test, the target named is PIM1 (Homo sapiens (Human), UniProt P11309). Description: biochemical. Format: biochemical. As to conditions: 20 pM PIM1, 1 μM FAM-peptide, 10 μM ATP, 90 minutes at room temperature; read-out: PIM1 LC3K (KI).
PIM1, sequence (P11309 whole entry): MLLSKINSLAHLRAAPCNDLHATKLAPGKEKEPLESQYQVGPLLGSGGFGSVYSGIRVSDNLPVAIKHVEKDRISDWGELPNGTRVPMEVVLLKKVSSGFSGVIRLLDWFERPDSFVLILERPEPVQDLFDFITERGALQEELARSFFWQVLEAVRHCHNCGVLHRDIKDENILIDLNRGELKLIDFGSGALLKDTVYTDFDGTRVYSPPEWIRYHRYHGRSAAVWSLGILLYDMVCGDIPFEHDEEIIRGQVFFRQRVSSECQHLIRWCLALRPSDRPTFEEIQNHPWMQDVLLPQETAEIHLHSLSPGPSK
With `Cn1ncc(NC(=O)c2csc(-c3c(F)cc(C4CCOC4)cc3F)n2)c1[C@@H]1CC[C@@H](N)[C@H](F)CO1` (stereo partly drawn) [Example 216, N-(5-((2S,5R,6S)-5-amino-6-fluorooxepan-2-yl)-1-methyl-1H-pyrazol-4-yl)-2-(2,6-difluoro-4-(tetrahydrofuran-3-yl)phenyl)thiazole-4-carboxamide], the pKi is 10.96.
The same measure for `Cn1ncc(NC(=O)c2csc(-c3c(F)cc(O[C@@H]4CCOC4)cc3F)n2)c1[C@@H]1CC[C@@H](N)[C@H](F)CO1` [Example 217]: 11.52; for `Cn1ncc(NC(=O)c2csc(-c3c(F)cc(O[C@H]4CCOC4)cc3F)n2)c1[C@@H]1CC[C@@H](N)[C@H](F)CO1` [Example 218]: 11.65; for `CO[C@H]1CO[C@H](c2c(NC(=O)c3nc(-c4cccc(F)c4F)sc3N)cnn2C)CC[C@H]1N` [Example 219, 5-amino-N-(5-((2S,5R,6R)-5-amino-6-methoxyoxepan-2-yl)-1-methyl-1H-pyrazol-4-yl)-2-(2,3-difluorophenyl)thiazole-4-carboxamide]: 10.30.
The same measure for `CO[C@H]1CO[C@H](c2c(NC(=O)c3nc(-c4ccccc4C(F)(F)F)sc3N)cnn2C)CC[C@H]1N` [Example 220, 5-amino-N-(5-((2S,5R,6R)-5-amino-6-methoxyoxepan-2-yl)-1-methyl-1H-pyrazol-4-yl)-2-(2-(trifluoromethyl)phenyl)thiazole-4-carboxamide]: 10.08; for `CO[C@H]1CO[C@H](c2c(NC(=O)c3csc(-c4c(F)cccc4F)n3)cnn2C)CC[C@H]1N` [Example 221, N-(5-((2S,5R,6R)-5-amino-6-methoxyoxepan-2-yl)-1-methyl-1H-pyrazol-4-yl)-2-(2,6-difluorophenyl)thiazole-4-carboxamide]: 10.18; for `Cn1ncc(NC(=O)c2ccc(F)c(-c3cc(F)ccc3F)n2)c1[C@@H]1CC[C@@H](N)[C@H](F)CO1` [Example 222, N-(5-((2S,5R,6S)-5-amino-6-fluorooxepan-2-yl)-1-methyl-1H-pyrazol-4-yl)-6-(2,5-difluorophenyl)-5-fluoropicolinamide]: 9.79.
The same measure for `Cn1ncc(NC(=O)c2ccc(F)c(-c3cccc(F)c3F)n2)c1[C@@H]1CC[C@@H](N)[C@H](F)CO1` [Example 223, N-(5-((2S,5R,6S)-5-amino-6-fluorooxepan-2-yl)-1-methyl-1H-pyrazol-4-yl)-6-(2,3-difluorophenyl)-5-fluoropicolinamide]: 10.08; for `Cn1ncc(NC(=O)c2csc(-c3c(F)cc(C4(O)COC4)cc3F)n2)c1[C@@H]1CC[C@@H](N)[C@H](F)CO1` [Example 224, N-(5-((2S,5R,6S)-5-amino-6-fluorooxepan-2-yl)-1-methyl-1H-pyrazol-4-yl)-2-(2,6-difluoro-4-(3-hydroxyoxetan-3-yl)phenyl)thiazole-4-carboxamide]: 10.46.
For `Cn1ncc(NC(=O)c2csc(-c3c(F)cc(C4(O)CC4)cc3F)n2)c1[C@@H]1CC[C@@H](N)[C@H](F)CO1` [Example 225, N-(5-((2S,5R,6S)-5-amino-6-fluorooxepan-2-yl)-1-methyl-1H-pyrazol-4-yl)-2-(2,6-difluoro-4-(1-hydroxycyclopropyl)phenyl)thiazole-4-carboxamide], the pKi is 10.55.
The same measure for `COc1ccc(-c2nc(C(=O)Nc3cnn(C)c3[C@@H]3CC[C@@H](N)[C@H](F)CO3)ccc2F)c(F)c1` [Example 226, N-(5-((2S,5R,6S)-5-amino-6-fluorooxepan-2-yl)-1-methyl-1H-pyrazol-4-yl)-5-fluoro-6-(2-fluoro-4-methoxyphenyl)picolinamide]: 10.44.
The same measure for `Cn1ncc(NC(=O)c2ccc(F)c(-c3cccc(F)c3Cl)n2)c1[C@@H]1CC[C@@H](N)[C@H](F)CO1` [Example 227, N-(5-((2S,5R,6S)-5-amino-6-fluorooxepan-2-yl)-1-methyl-1H-pyrazol-4-yl)-6-(2-chloro-3-fluorophenyl)-5-fluoropicolinamide]: 9.24; for `Cn1ncc(NC(=O)c2csc(-c3cnn(CC(C)(C)O)c3)n2)c1[C@@H]1CC[C@@H](N)[C@H](F)CO1` [Example 228, N-(5-((2S,5R,6S)-5-amino-6-fluorooxepan-2-yl)-1-methyl-1H-pyrazol-4-yl)-2-(1-(2-hydroxy-2-methylpropyl)-1H-pyrazol-4-yl)thiazole-4-carboxamide]: 9.91; for `COc1ccc(F)c(-c2nc(C(=O)Nc3cnn(C)c3[C@@H]3CC[C@@H](N)[C@H](F)CO3)cs2)c1F` [Example 229, N-(5-((2S,5R,6S)-5-amino-6-fluorooxepan-2-yl)-1-methyl-1H-pyrazol-4-yl)-2-(2,6-difluoro-3-methoxyphenyl)thiazole-4-carboxamide]: 12.00.
With `Cn1ncc(NC(=O)c2csc(-c3c(F)ccc(F)c3F)n2)c1[C@@H]1CC[C@@H](N)[C@@H](F)CO1` [Example 230, N-(5-((2S,5R,6R)-5-amino-6-fluorooxepan-2-yl)-1-methyl-1H-pyrazol-4-yl)-2-(2,3,6-trifluorophenyl)thiazole-4-carboxamide], the pKi was 10.51.
The same measure for `Cc1cccnc1-c1nc(C(=O)Nc2cnn(C)c2[C@@H]2CC[C@@H](N)[C@H](F)CO2)cs1` [Example 231, N-(5-((2S,5R,6S)-5-amino-6-fluorooxepan-2-yl)-1-methyl-1H-pyrazol-4-yl)-2-(3-methylpyridin-2-yl)thiazole-4-carboxamide]: 10.35.
For the compound `COc1ncccc1-c1nc(C(=O)Nc2cnn(C)c2[C@@H]2CC[C@@H](N)[C@H](F)CO2)cs1` [Example 232, N-(5-((2S,5R,6S)-5-amino-6-fluorooxepan-2-yl)-1-methyl-1H-pyrazol-4-yl)-2-(2-methoxypyridin-3-yl)thiazole-4-carboxamide], the pKi is 8.95.
With `Cn1ncc(NC(=O)c2csc(-c3ccc[nH]c3=O)n2)c1[C@@H]1CC[C@@H](N)[C@H](F)CO1` [Example 233, N-(5-((2S,5R,6S)-5-amino-6-fluorooxepan-2-yl)-1-methyl-1H-pyrazol-4-yl)-2-(2-oxo-1,2-dihydropyridin-3-yl)thiazole-4-carboxamide], the pKi is 9.99.
As to `Cc1noc(C)c1-c1nc(C(=O)Nc2cnn(C)c2[C@@H]2CC[C@@H](N)[C@H](F)CO2)cs1` [Example 234, N-(5-((2S,5R,6S)-5-amino-6-fluorooxepan-2-yl)-1-methyl-1H-pyrazol-4-yl)-2-(3,5-dimethylisoxazol-4-yl)thiazole-4-carboxamide], the pKi is 10.17.
The result for `Cn1ncc(NC(=O)c2csc(-c3cnn(C4CC4)c3)n2)c1[C@@H]1CC[C@@H](N)[C@H](F)CO1` [Example 235, N-(5-((2S,5R,6S)-5-amino-6-fluorooxepan-2-yl)-1-methyl-1H-pyrazol-4-yl)-2-(1-cyclopropyl-1H-pyrazol-4-yl)thiazole-4-carboxamide] reads 10.17; that for `Cn1ncc(NC(=O)c2csc(-c3cc(F)cc(F)c3F)n2)c1[C@@H]1CC[C@@H](N)[C@H](F)CO1` [Example 236, N-(5-((2S,5R,6S)-5-amino-6-fluorooxepan-2-yl)-1-methyl-1H-pyrazol-4-yl)-2-(2,3,5-trifluorophenyl)thiazole-4-carboxamide], 9.59.
The same measure for `Cn1ncc(NC(=O)c2csc(-c3ncccc3F)n2)c1[C@@H]1CC[C@@H](N)[C@H](F)CO1` [Example 237, N-(5-((2S,5R,6S)-5-amino-6-fluorooxepan-2-yl)-1-methyl-1H-pyrazol-4-yl)-2-(3-fluoropyridin-2-yl)thiazole-4-carboxamide]: 9.97; for `Cc1ccc(F)c(-c2nc(C(=O)Nc3cnn(C)c3[C@@H]3CC[C@@H](N)[C@H](F)CO3)cs2)c1` [Example 238, N-(5-((2S,5R,6S)-5-amino-6-fluorooxepan-2-yl)-1-methyl-1H-pyrazol-4-yl)-2-(2-fluoro-5-methylphenyl)thiazole-4-carboxamide]: 10.32; for `Cn1ncc(NC(=O)c2csc(-c3cncc(F)c3)n2)c1[C@@H]1CC[C@@H](N)[C@H](F)CO1` [Example 239, N-(5-((2S,5R,6S)-5-amino-6-fluorooxepan-2-yl)-1-methyl-1H-pyrazol-4-yl)-2-(5-fluoropyridin-3-yl)thiazole-4-carboxamide]: 8.58.
The same measure for `Cn1ncc(NC(=O)c2csc(-c3ccncc3F)n2)c1[C@@H]1CC[C@@H](N)[C@H](F)CO1` [Example 240, N-(5-((2S,5R,6S)-5-amino-6-fluorooxepan-2-yl)-1-methyl-1H-pyrazol-4-yl)-2-(3-fluoropyridin-4-yl)thiazole-4-carboxamide]: 9.47; for `Cc1nn(C)cc1-c1nc(C(=O)Nc2cnn(C)c2[C@@H]2CC[C@@H](N)[C@H](F)CO2)cs1` [Example 241, N-(5-((2S,5R,6S)-5-amino-6-fluorooxepan-2-yl)-1-methyl-1H-pyrazol-4-yl)-2-(1,3-dimethyl-1H-pyrazol-4-yl)thiazole-4-carboxamide]: 9.55; for `Cc1c(-c2nc(C(=O)Nc3cnn(C)c3[C@@H]3CC[C@@H](N)[C@H](F)CO3)cs2)cnn1C` [Example 242, N-(5-((2S,5R,6S)-5-amino-6-fluorooxepan-2-yl)-1-methyl-1H-pyrazol-4-yl)-2-(1,5-dimethyl-1H-pyrazol-4-yl)thiazole-4-carboxamide]: 9.66.
Consider `Cn1ncc(NC(=O)c2csc(-c3c(F)ccc(F)c3F)n2)c1[C@@H]1CC[C@@H](N)[C@H](F)CO1` [Example 243, N-(5-((2S,5R,6S)-5-amino-6-fluorooxepan-2-yl)-1-methyl-1H-pyrazol-4-yl)-2-(2,3,6-trifluorophenyl)thiazole-4-carboxamide], for which the pKi was 10.33.
The result for `Cc1noc(C)c1-c1nc(C(=O)Nc2cnn(C)c2[C@@H]2CC[C@@H](N)[C@@H](F)CO2)cs1` [Example 244, N-(5-((2S,5R,6R)-5-amino-6-fluorooxepan-2-yl)-1-methyl-1H-pyrazol-4-yl)-2-(3,5-dimethylisoxazol-4-yl)thiazole-4-carboxamide] reads 8.22; that for `Cn1ncc(NC(=O)c2csc(-c3cccc(F)c3F)n2)c1[C@@H]1CC[C@@H](N)[C@@H](F)CO1` [Example 245, N-(5-((2S,5R,6R)-5-amino-6-fluorooxepan-2-yl)-1-methyl-1H-pyrazol-4-yl)-2-(2,3-difluorophenyl)thiazole-4-carboxamide], 9.98.

Broadly, the pKi is the Ki on a negative log10 scale, so that one unit is a factor of ten.
